Laboratory results reported in US9463216B2 (priority 2012, dated 2016).

Molecular target: PA (Bacillus anthracis, UniProt P13423)
Assay type: binding, B. anthracis

Sequence of PA (P13423 30-764 limits assumed): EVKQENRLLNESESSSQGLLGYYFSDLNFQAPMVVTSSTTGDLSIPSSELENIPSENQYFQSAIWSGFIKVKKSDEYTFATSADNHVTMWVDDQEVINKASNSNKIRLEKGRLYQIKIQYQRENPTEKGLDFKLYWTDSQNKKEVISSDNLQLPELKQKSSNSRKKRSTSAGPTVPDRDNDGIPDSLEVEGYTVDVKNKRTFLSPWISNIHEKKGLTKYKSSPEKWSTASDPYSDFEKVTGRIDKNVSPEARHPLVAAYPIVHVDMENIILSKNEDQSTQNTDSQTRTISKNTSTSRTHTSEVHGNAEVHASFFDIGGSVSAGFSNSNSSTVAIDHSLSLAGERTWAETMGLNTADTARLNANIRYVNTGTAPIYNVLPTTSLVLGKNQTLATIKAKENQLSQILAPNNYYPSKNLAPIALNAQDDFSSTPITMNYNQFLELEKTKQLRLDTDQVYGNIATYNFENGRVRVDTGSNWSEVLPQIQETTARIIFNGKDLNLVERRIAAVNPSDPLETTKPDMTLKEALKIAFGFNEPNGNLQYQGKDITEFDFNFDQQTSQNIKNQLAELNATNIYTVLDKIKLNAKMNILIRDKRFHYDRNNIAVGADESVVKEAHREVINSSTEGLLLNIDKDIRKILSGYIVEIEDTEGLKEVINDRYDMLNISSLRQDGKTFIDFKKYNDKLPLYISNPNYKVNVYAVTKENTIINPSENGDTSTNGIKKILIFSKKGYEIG

For poly-γ-D-glutamic acid [Compound 3], the “form complexes with PA” value was “can form complexes with PA”.
